In patent EP1420018A1, “Pyrido[1,2-a]benzimidazole derivatives useful in treating central nervous system disorders” (Ortho-McNeil Pharmaceutical, Inc., priority 1996, dated 1998):
Where a name gives a salt, the structure may show the parent alone. Read-outs that look alike come from different tables or passages of the source.

Columns and labels:
[1] = system: metrazol-induced convulsions; assay: Suppression of Metrazol-Induced Convulsions in Adult Male Mice; assay type: in vivo; settings: for ED50: Mus musculus, ip
Protocol: Assay to Determine the Suppression of Metrazol-Induced Convulsions in Adult Male Mice
Male CD1 mice, were fasted at least 16 hours, were divided into equal groups and test compounds or vehicle were administered parenterally. Water was not withheld except during the period of observations. […] Metrazol was dissolved in 0.9% sodium chloride solution, and its dose volume was 10 ml/kg. Animals were housed individually for observation of clonic convulsions, tonic convulsions and death for a period of 30 min. […] The biological assay was considered to be valid if the effects of a known anticonvulsant (positive control) were detected, within the same experiment. Activity was reported as percent reduction of clonic convulsions from the vehicle group.

[2] = system: metrazol-induced convulsions; assay: as above; assay type: in vivo; settings: for ED50: Mus musculus, po
[3] = system: Anxiety in the Adult Male Rat; assay: Suppression of Anxiety in the Adult Male Rat (rat conflict test); assay type: in vivo, rats; settings: for minimal effective dose: Rattus norvegicus
Protocol: Assay to Measure the Suppression of Anxiety in the Adult Male Rat
Male rats were deprived of water for 48 hours and were deprived of food for 24 hours prior to testing. After the first 24 hours of water deprivation, they were placed in the conflict chamber for a training period; wherein, they were allowed 200 unpunished licks from a bottle containing tap water. The experiment was run the next day. At the expected time of peak activity, the animals were placed in the chamber and allowed access to tap water. […] Their first lick initiates a 3-min test session. Subsequently, every 20th lick was punished by a 0.2-s shock delivered via the stainless-steel drinking-tube.
The Wilcoxon rank-sum test (Mann-Whitney U-test) was used to test for an increase (p<0.05, 1-tailed) in the median number of shocks in drug-treated groups, compared to a concurrently run vehicle-treated group. The biological assay is considered to be valid if the effects of a known anxiolytic (positive control) are detected, within the same experiment.

[4] = target: benzodiazepine site of the GABA-A receptor; assay: Benzodiazepine Receptor Binding Assay (inhibition of 3H-flunitrazepam binding); settings: read-out: GABAA Receptor Binding IC50
[5] = block of clonic convulsions, male CD1 mice, >30 = active dose not determined
[6] = po, minimum effective dose, increase in shocks tolerated, >10 = active dose not determined, read-out: Rat Conflict (MED, mg/kg) po
[7] = inhibition of 3H-flunitrazepam (ca. 3 nM) binding to membranes, 25°C, over 10,000 = not active
[8] = ip, minimum effective dose, increase in shocks tolerated, >10 = active dose not determined, read-out: Rat Conflict (MED, mg/kg) ip
[9] = po, rat, po, read-out: Rat Conflict (MED, mg/kg) po
[10] = ip, rat, ip, read-out: Rat Conflict (MED, mg/kg) ip

Molecule | IC50 [4] [nM] | IC50 [4, 7] [nM] | ED50 [1, 5] [mg/kg] | ED50 [2, 5] [mg/kg] | minimal effective dose [3, 6] [mg/kg] | ED50 ([1]; mouse) [mg/kg] | ED50 ([2]; mouse) [mg/kg] | minimal effective dose [3, 9] [mg/kg] | minimal effective dose [3, 10] [mg/kg] | other results
7-Fluoro-1,2-dihydro-5-[2-(methoxy)ethoxymethyl]-3-oxo-N-(2-fluorophenyl)pyrido[1,2-a]benzimidazole-4-carboxamide [Compound 160] | 0.48 | – | – | – | – | – | – | – | – | Mouse Metrazol (ED50, mg/kg) ip ([1]; mouse): <1 mg/kg; Mouse Metrazol (ED50, mg/kg) po ([2]; mouse): 0.3 mg/kg; Rat Conflict (MED, mg/kg) ip ([3]; rat, ip): <10 mg/kg; Rat Conflict (MED, mg/kg) po ([3]; rat, po): 1 mg/kg
N#CCCNC(=O)CN1C2=C(C(=O)Nc3ccccc3F)C(=O)CCN2c2ccc(F)cc21 [Compound 36, 7-Fluoro-1,2-dihydro-5-[N-(2-cyanoethyl)-2-acetamido]-3-oxo-N-(2-fluorophenyl)pyrido[1,2-a]benzimidazole-4-carboxamide] | – | 3.3 | > 1 | > 30 | > 10 | – | – | – | – | –
CN(CCN1C2=C(C(=O)Nc3ccccc3F)C(=O)CCN2c2ccc(F)cc21)S(=O)(=O)C(F)(F)F [Compound 37] | – | 18.3 | > 1 | > 30 | > 10 | – | – | – | – | –
COCCN(C)CCN1C2=C(C(=O)Nc3ccccc3F)C(=O)CCN2c2ccc(F)cc21 [Compound 38, 7-Fluoro-1,2-dihydro-5-[N-(2-(methoxy)ethyl)-2-(methylamino)ethyl]-3-oxo-N-(2-fluorophenyl)pyrido[1,2-a]-benzimidazole-4-carboxamide] | – | 4.06 | < 1 | 1 | 3 | – | – | – | – | –
O=C1CCN2C(=C1C(=O)Nc1ccccc1F)N(CCNS(=O)(=O)c1ccc(C(F)(F)F)cc1)c1cc(F)ccc12 [Compound 39] | – | 122 | > 1 | > 3 | > 10 | – | – | – | – | –
CN(C)C=NCCN1C2=C(C(=O)Nc3ccccc3F)C(=O)CCN2c2ccc(F)cc21 [Compound 40] | – | 35 | < 1 | ~30 | 10 | – | – | – | – | –
CCN(C)CCN1C2=C(C(=O)Nc3ccccc3F)C(=O)CCN2c2ccc(F)cc21 [Compound 41] | – | 9.8 | 3 | ~10 | 10 | – | – | – | – | –
O=C1CCN2C(=C1C(=O)Nc1ccccc1F)N(CCNC(=O)c1ccc(C(F)(F)F)cc1)c1cc(F)ccc12 [Compound 42] | – | 17 | ≥ 30 | > 30 | ~3 | – | – | – | – | minimal effective dose [3, 8]: ≤ 10 mg/kg
CN(C)CCN1C2=C(C(=O)Nc3ccccc3F)C(=O)CCN2c2ccc(Cl)cc21 [Compound 43] | – | 26.9 | 1 to 10 | < 30 | > 10 | – | – | – | – | minimal effective dose [3, 8]: 10 mg/kg
O=C1CCN2C(=C1C(=O)Nc1ccccc1F)N(CCNS(=O)(=O)c1ccccc1)c1cc(F)ccc12 [Compound 44] | – | 10.1 | ≤ 1 | < 30 | > 10 | – | – | – | – | minimal effective dose [3, 8]: > 10 mg/kg
CC(=O)OCCN1C2=C(C(=O)Nc3ccccc3F)C(=O)CCN2c2ccc(F)cc21 [Compound 119, 7-Fluoro-1,2-dihydro-5-(2-acetoxyethyl)-3-oxo-N-(2-fluorophenyl)pyrido[1,2-a]benzimidazole-4-carboxamide] | – | – | – | – | – | < 1 | ≤ 3 | 3 | – | –
O=C1CCN2C(=C1C(=O)Nc1ccccc1F)N(CC(O)CO)c1cc(F)ccc12 (centres unmarked) [Compound 162, 7-Fluoro-1,2-dihydro-5-[2,3-dihydroxypropyl]-3-oxo-N-(2-fluorophenyl)pyrido[1,2-a]benzimidazole-4-carboxamide] | – | – | – | – | – | 3 | ≤ 30 | > 10 | ≤ 10 | –
C[S+]([O-])CCN1C2=C(C(=O)Nc3ccccc3F)C(=O)CCN2c2ccc(F)cc21 (centres unmarked) [Compound 183, 7-Fluoro-1,2-dihydro-5-[2-(methylsulfoxy)ethyl]-3-oxo-N-(2-fluorophenyl)pyrido[1,2-a]benzimidazole-4-carboxamide] | – | – | > 1 | ~10 | 10 | – | – | – | – | –

Second part, led by results:

IC50 [4] [nM] | IC50 [4, 7] [nM] | Molecule | ED50 [1, 5] [mg/kg] | ED50 [2, 5] [mg/kg] | minimal effective dose [3, 6] [mg/kg] | ED50 ([1]; mouse) [mg/kg] | ED50 ([2]; mouse) [mg/kg] | minimal effective dose [3, 9] [mg/kg] | minimal effective dose [3, 10] [mg/kg] | other results
– | 40.6 | CN(C)CCN1C2=C(C(=O)Nc3ccccc3F)C(=O)CCN2c2cccc(F)c21 [Compound 45] | 1 | 3 to 10 | 10 | – | – | – | – | minimal effective dose [3, 8]: > 10 mg/kg
8.1 | – | O=C1CCN2C(=C1C(=O)Nc1ccccc1F)N(CCNC(=O)c1ccccc1)c1cc(F)ccc12 [Compound 46] | – | – | – | 1 | 30 | ~10 | – | –
13.7 | – | O=C1CCN2C(=C1C(=O)Nc1ccccc1F)N(CCNS(=O)(=O)c1cccs1)c1cc(F)ccc12 [Compound 47] | – | – | – | 1 | 30 | – | > 10 | –
30.2 | – | O=C1CCN2C(=C1C(=O)Nc1ccccc1F)N(CCNS(=O)(=O)C(F)(F)F)c1cc(F)ccc12 [Compound 48, 7-Fluoro-1,2-dihydro-5-[2-(trifluoromethylsulfonamido)ethyl]-3-oxo-N-(2-fluorophenyl)pyrido[1,2-a]benzimidazole-4-carboxamide] | – | – | – | ≤ 1 | < 30 | 10 | – | –
152 | – | CN(C)CCN1C2=C(C(=O)Nc3cccs3)C(=O)CCN2c2ccc(F)cc21 [Compound 49] | – | – | – | 3 | ~5 | ~10 | > 10 | –
7.7 | – | CS(=O)(=O)NCCN1C2=C(C(=O)Nc3ccccc3F)C(=O)CCN2c2ccc(F)cc21 [Compound 50] | – | – | – | 1 | < 30 | – | > 10 | –
0.51 | – | O=C1CCN2C(=C1C(=O)Nc1ccccc1F)N(CCNC(=O)C(F)(F)F)c1cc(F)ccc12 [Compound 51] | – | – | – | 0.3 | 1 | > 10 | ~10 | –
7.42 | – | COCCNCCN1C2=C(C(=O)Nc3ccccc3F)C(=O)CCN2c2ccc(F)cc21 [Compound 52] | – | – | – | 1 | 1 | 10 | ~10 | –
5.47 | – | CC(=O)NCCN1C2=C(C(=O)Nc3ccccc3F)C(=O)CCN2c2ccc(F)cc21 [Compound 53] | – | – | – | 7 | 30 | – | > 10 | –
208 | – | CN(C)CCN1C2=C(C(=O)Nc3c(F)cc(F)cc3F)C(=O)CCN2c2ccc(F)cc21 [Compound 54] | – | – | – | 10 | > 30 | – | > 10 | –
31.8 | – | CN(C)CCN1C2=C(C(=O)Nc3ccc(F)cc3F)C(=O)CCN2c2ccc(F)cc21 [Compound 55] | – | – | – | 1 | 1 | 3 | < 10 | –
7.99 | – | COCCN(CCN1C2=C(C(=O)Nc3ccccc3F)C(=O)CCN2c2ccc(F)cc21)Cc1ccccc1 [Compound 56] | – | – | – | 1 | ~10 | – | > 10 | –
5.13 | – | NCCN1C2=C(C(=O)Nc3ccccc3F)C(=O)CCN2c2ccc(F)cc21 [Compound 57] | – | – | – | 0.3 | 10 | 10 | ~10 | –
0.54 | – | CC(C)(C)OC(=O)NCCN1C2=C(C(=O)Nc3ccccc3F)C(=O)CCN2c2ccc(F)cc21 [Compound 58] | – | – | – | < 1 | < 30 | > 10 | ≤ 10 | –
16 | – | CNCCN1C2=C(C(=O)Nc3ccccc3F)C(=O)CCN2c2ccc(F)cc21 [Compound 59, 7-Fluoro-1,2-dihydro-5-[2-(methylamino)ethyl]-3-oxo-N-(2-fluorophenyl)pyrido[1,2-a]benzimidazole-4-carboxamide hydrochloride hydrate (4:4:5)] | – | – | – | 3 | 10 | 1 | 10 | –
21.4 | – | O=C(CN1C2=C(C(=O)Nc3c(F)cccc3F)C(=O)CCN2c2ccc(F)cc21)Nc1ccccc1F [Compound 60] | – | – | – | 10 | > 30 | – | – | –
53.5 | – | CCOCN1C2=C(C(=O)Nc3cc4ccccc4s3)C(=O)CCN2c2ccc(F)cc21 [Compound 115] | – | – | – | > 1 | > 30 | – | – | –
106 | – | CCOCCN1C2=C(C(=O)Nc3cc4ccccc4s3)C(=O)CCN2c2ccc(F)cc21 [Compound 117] | – | – | – | ≤ 1 | > 30 | – | – | –
